Measurements published in patent US20090022803A1, “Oral Formulations For Delivery of Catecholic Butanes Including Ndga Compounds” (priority 2005, published 2009).

Legend:
HeLa cells = assay: Cell proliferation and cell death after 72 hr treatment, trypan blue exclusion; type: cell-based, human; details: CPE formulation, lots EM1001 and EM1002
Experimental: M4N in 10% (w/v) HP-β-CD and 25% (v/v) PEG 300 (hereafter, the “CPE formulation”), M4N in 30% (w/v) HP-β-CD and 25% (v/v) PEG 300 (hereafter, the “CPE 25/30 formulation”) and M4N in 27% (w/v) HP-β-CD and 33% (v/v) PEG 300 (hereafter, the “CPE 33/27 formulation”) was tested for their effects on cell death and proliferation on two different tumor cell lines: HeLa, an HPV-18 positive human cervical cancer cell line, and C-33A, an HPV-negative human cervical cancer cell line. M4N in DMSO was also tested in parallel. Both tumor cell lines were treated with increasing amounts of M4N: 0 μM, 20 μM, 40 μM, 60 μM and 80 μM, for 72 hr with the DMSO or the CPE formulation. […] After 72 hr of treatment or no treatment, the total number of cells and the number of live cells in each sample were counted, using the trypan blue exclusion method. The cell proliferation rate and the percentage of dead cells in each sample were analyzed. […]
Various lots of M4N were tested to show the effectiveness of the drug of different lots. […] After 72 hr of treatment or no treatment, the total number of cells and the number of live cells in each sample were counted, using the trypan blue exclusion method. The cell proliferation rate and the percentage of dead cells in each sample were analyzed.

[1] = M4N stability in HP-β-CD/PEG 300 buffer solutions at 60° C., RP-HPLC and pH; type: physicochemical; details: for M4N stability: M4N: 25% PEG300
Experimental: The stability of 10 mg/mL M4N (prepared in a ratio of 75:25 40% HP-β-CD: 40 mg/mL M4N PEG 300) in 15 mM buffer solutions was evaluated following incubation at 60° C.
2.0 g HP-β-CD was weighed into 5 mL volumetric flasks on an OHAUS Analytical Plus Balance. 1 mL of a 100 mM buffer solution was added to each flask. Each sample was q.s. to 5 mL with WFI.
750 μL 40% HP-β-CD buffered solution was placed in 1.5 mL polypropylene microtubes. […] After gentle inversion of the sample tubes, the pH of each solution was measured using a Orion, Model 420A pH meter. An initial aliquot was removed for RP-HPLC analysis. Test samples were then placed in a Precision 60° C. incubator. The M4N stability was evaluated by RP-HPLC. At each time point, the samples were centrifuged for 2 minutes at 13,000 rpm to pellet any solid M4N.

[2] = 40 mg/mL M4N/PEG 300 stability, visual appearance; type: physicochemical; details: for Visual Appearance: 40 mg/mL M4N/PEG 300
Experimental: The stability of 40 mg/mL M4N dissolved in 100% PEG 300 was evaluated up to 24 hours incubation at 30° C., 45° C. and 60° C. A stock 40 mg/mL M4N in PEG 300 was prepared at 60° C., following the procedure set forth in Example 18. Subsequently, aliquots were removed and incubated at the appropriate temperature. Samples were rotated at 450 rpm during the entire course of incubation. Visual observations and RP-HPLC data were collected throughout. […] The formation of crystals coincided with a loss of soluble M4N (Table 30). The 40 mg/mL M4N/PEG 300 samples incubated at 45° C. and 60° C. were stable after 24 hours incubation as assessed by visual observations and RP-HPLC analysis (Tables 29 and 30).

## COc1ccc(C[C@@H](C)[C@@H](C)Cc2ccc(OC)c(OC)c2)cc1OC [Formulation M4N, meso-1,4-bis(3,4-dimethoxyphenyl)-2,3-dimethylbutane]
HeLa cells
  effectiveness of different lots of M4N: remains the same
[1]; 10 mg/mL M4N in HP-β-CD/PEG 300 buffer solutions, 14 day incubation at 60° C.
  change in M4N concentration: slight decrease
[1]; 15 mM Acetate, pH 5 30% HP-β-CD, 60° C., 0 days
  M4N stability: M4N: 10.6 mg/mL
[1]; 15 mM Acetate, pH 5 30% HP-β-CD, 60° C., 2 days
  M4N stability: M4N: 10.2 mg/mL
[1]; 15 mM Acetate, pH 5 30% HP-β-CD, 60° C., 6 days
  M4N stability: M4N: 9.6 mg/mL
[1]; 15 mM Acetate, pH 5 30% HP-β-CD, 60° C., 10 days
  M4N stability: M4N: 9.7 mg/mL
[1]; 15 mM Acetate, pH 5 30% HP-β-CD, 60° C., 14 days
  M4N stability: M4N: 9.6 mg/mL
[1]; 15 mM Acetate, pH 6 30% HP-β-CD, 60° C., 0 days
  M4N stability: M4N: 10.5 mg/mL
[1]; 15 mM Acetate, pH 6 30% HP-β-CD, 60° C., 2 days
  M4N stability: M4N: 10.1 mg/mL
[1]; 15 mM Acetate, pH 6 30% HP-β-CD, 60° C., 6 days
  M4N stability: M4N: 9.7 mg/mL
[1]; 15 mM Acetate, pH 6 30% HP-β-CD, 60° C., 10 days
  M4N stability: M4N: 9.7 mg/mL
[1]; 15 mM Acetate, pH 6 30% HP-β-CD, 60° C., 14 days
  M4N stability: M4N: 9.6 mg/mL
[1]; 15 mM Borate, pH 10 30% HP-β-CD, 60° C., 0 days
  M4N stability: M4N: 10.5 mg/mL
[1]; 15 mM Borate, pH 10 30% HP-β-CD, 60° C., 2 days
  M4N stability: M4N: 10.1 mg/mL
[1]; 15 mM Borate, pH 10 30% HP-β-CD, 60° C., 6 days
  M4N stability: M4N: 9.7 mg/mL
[1]; 15 mM Borate, pH 10 30% HP-β-CD, 60° C., 10 days
  M4N stability: M4N: 9.6 mg/mL
[1]; 15 mM Borate, pH 10 30% HP-β-CD, 60° C., 14 days
  M4N stability: M4N: 9.6 mg/mL
[1]; 15 mM Borate, pH 11 30% HP-β-CD, 60° C., 0 days
  M4N stability: M4N: 10.5 mg/mL
[1]; 15 mM Borate, pH 11 30% HP-β-CD, 60° C., 2 days
  M4N stability: M4N: 10.3 mg/mL
[1]; 15 mM Borate, pH 11 30% HP-β-CD, 60° C., 6 days
  M4N stability: M4N: 9.8 mg/mL
[1]; 15 mM Borate, pH 11 30% HP-β-CD, 60° C., 10 days
  M4N stability: M4N: 9.5 mg/mL
[1]; 15 mM Borate, pH 11 30% HP-β-CD, 60° C., 14 days
  M4N stability: M4N: 9.4 mg/mL
[1]; 15 mM Phosphate, pH 3 30% HP-β-CD, 60° C., 0 days
  M4N stability: M4N: 10.3 mg/mL
[1]; 15 mM Phosphate, pH 3 30% HP-β-CD, 60° C., 2 days
  M4N stability: M4N: 10.1 mg/mL
[1]; 15 mM Phosphate, pH 3 30% HP-β-CD, 60° C., 6 days
  M4N stability: M4N: 9.6 mg/mL
[1]; 15 mM Phosphate, pH 3 30% HP-β-CD, 60° C., 10 days
  M4N stability: M4N: 9.7 mg/mL
[1]; 15 mM Phosphate, pH 3 30% HP-β-CD, 60° C., 14 days
  M4N stability: M4N: 9.6 mg/mL
[1]; 15 mM Phosphate, pH 4 30% HP-β-CD, 60° C., 0 days
  M4N stability: M4N: 10.5 mg/mL
[1]; 15 mM Phosphate, pH 4 30% HP-β-CD, 60° C., 2 days
  M4N stability: M4N: 10.1 mg/mL
[1]; 15 mM Phosphate, pH 4 30% HP-β-CD, 60° C., 6 days
  M4N stability: M4N: 9.6 mg/mL
[1]; 15 mM Phosphate, pH 4 30% HP-β-CD, 60° C., 10 days
  M4N stability: M4N: 9.7 mg/mL
[1]; 15 mM Phosphate, pH 4 30% HP-β-CD, 60° C., 14 days
  M4N stability: M4N: 9.6 mg/mL
[1]; 15 mM Phosphate, pH 7 30% HP-β-CD, 60° C., 0 days
  M4N stability: M4N: 10.5 mg/mL
[1]; 15 mM Phosphate, pH 7 30% HP-β-CD, 60° C., 2 days
  M4N stability: M4N: 10.3 mg/mL
[1]; 15 mM Phosphate, pH 7 30% HP-β-CD, 60° C., 6 days
  M4N stability: M4N: 9.7 mg/mL
[1]; 15 mM Phosphate, pH 7 30% HP-β-CD, 60° C., 10 days
  M4N stability: M4N: 9.7 mg/mL
[1]; 15 mM Phosphate, pH 7 30% HP-β-CD, 60° C., 14 days
  M4N stability: M4N: 9.7 mg/mL
[1]; 15 mM Phosphate, pH 8 30% HP-β-CD, 60° C., 0 days
  M4N stability: M4N: 10.6 mg/mL
[1]; 15 mM Phosphate, pH 8 30% HP-β-CD, 60° C., 2 days
  M4N stability: M4N: 10.4 mg/mL
[1]; 15 mM Phosphate, pH 8 30% HP-β-CD, 60° C., 6 days
  M4N stability: M4N: 9.7 mg/mL
[1]; 15 mM Phosphate, pH 8 30% HP-β-CD, 60° C., 10 days
  M4N stability: M4N: 9.8 mg/mL
[1]; 15 mM Phosphate, pH 8 30% HP-β-CD, 60° C., 14 days
  M4N stability: M4N: 9.6 mg/mL
[1]; 15 mM Phosphate, pH 9 30% HP-β-CD, 60° C., 0 days
  M4N stability: M4N: 10.4 mg/mL
[1]; 15 mM Phosphate, pH 9 30% HP-β-CD, 60° C., 2 days
  M4N stability: M4N: 10.2 mg/mL
[1]; 15 mM Phosphate, pH 9 30% HP-β-CD, 60° C., 6 days
  M4N stability: M4N: 9.7 mg/mL
[1]; 15 mM Phosphate, pH 9 30% HP-β-CD, 60° C., 10 days
  M4N stability: M4N: 9.8 mg/mL
[1]; 15 mM Phosphate, pH 9 30% HP-β-CD, 60° C., 14 days
  M4N stability: M4N: 9.7 mg/mL
[1]; HP-β-CD/PEG 300 buffer solutions, 60° C.
  M4N impurities, share of the total peak area: less than 0.1%
[1]; WFI, 30% HP-β-CD, 60° C., 0 days
  M4N stability: M4N: 10.4 mg/mL
[1]; WFI, 30% HP-β-CD, 60° C., 6 days
  M4N stability: M4N: 9.9 mg/mL
[1]; WFI, 30% HP-β-CD, 60° C., 10 days
  M4N stability: M4N: 9.7 mg/mL
[1]; WFI, 30% HP-β-CD, 60° C., 14 days
  M4N stability: M4N: 9.6 mg/mL
[1]; incubation at 60° C. up to 14 days
  change in apparent sample pH: Little if any changes
[2]; 40 mg/mL M4N/PEG 300, 6 hours at 30° C.
  visual observation: tiny crystals
[2]; 40 mg/mL M4N/PEG 300, 24 hours at 30° C.
  visual observation: even more crystals
[2]; 30° C., 2 hours
  Visual Appearance: Clear
[2]; 30° C., 4 hours
  Visual Appearance: Clear
[2]; 30° C., 6 hours
  Visual Appearance: Few tiny
[2]; 30° C., 24 hours
  Visual Appearance: Many tiny
[2]; 45° C., 2 hours
  Visual Appearance: Clear
[2]; 45° C., 4 hours
  Visual Appearance: Clear
[2]; 45° C., 6 hours
  Visual Appearance: Clear
[2]; 45° C., 24 hours
  Visual Appearance: Clear
[2]; 60° C., 2 hours
  Visual Appearance: Clear
[2]; 60° C., 4 hours
  Visual Appearance: Clear
[2]; 60° C., 6 hours
  Visual Appearance: Clear
[2]; 60° C., 24 hours
  Visual Appearance: Clear
